Reference: patent publication US4572895A, “Process for preparing an antibiotic complex by culturing actinomyces strain ATCC 39417” (priority 1985, dated 1986)
Converted amounts (≈) assume the structure as drawn. Where two headings read alike, the source gives them in different places.

What was measured:
[1] = tested on: Escherichia coli NIHJ; test: MIC, serial two-fold agar dilution; format: cell-based; conditions: nutrient agar
[2] = tested on: Staphylococcus aureus Smith; test: MIC, serial two-fold agar dilution; format: cell-based; conditions: nutrient agar
[3] = tested on: Clostridium perfringens; test: microbe, parasite or virus in culture; format: cell-based
[4] = tested on: lymphocytic leukemia P388; test: antitumor activity, P388 leukemia in mice; conditions: qd 1→9
[5] = tested on: lymphoid leukemia L1210; test: antitumor activity, L1210 leukemia in mice; conditions: qd 1→9
[6] = tested on: Micrococcus luteus PCI 1001; test: MIC, serial two-fold agar dilution; format: cell-based; conditions: PCI1001, nutrient agar
[7] = tested on: Aspergillus fumigatus IAM 2530; test: MIC, serial two-fold agar dilution; format: cell-based; conditions: IAM2530, Sabouraud agar
[8] = tested on: Staphylococcus aureus 209P; test: MIC, serial two-fold agar dilution; format: cell-based; conditions: nutrient agar
[9] = tested on: Candida albicans IAM 4888; test: MIC, serial two-fold agar dilution; format: cell-based; conditions: IAM4888, Sabouraud agar
[10] = tested on: lymphocytic leukemia P388; conditions: qd 1→9
[11] = tested on: Cryptococcus neoformans D49; test: MIC, serial two-fold agar dilution; format: cell-based; conditions: Sabouraud agar
[12] = tested on: Klebsiella pneumoniae D11; test: MIC, serial two-fold agar dilution; format: cell-based; conditions: nutrient agar
[13] = tested on: Pseudomonas aeruginosa D15; test: MIC, serial two-fold agar dilution; format: cell-based; conditions: nutrient agar
[14] = tested on: melanotic melanoma B16; test: antitumor activity, B16 melanoma in mice; conditions: qd 1→9
[15] = tested on: Propionibacterium acnes; test: MIC, serial two-fold agar dilution; format: cell-based; conditions: Cutibacterium acnes; GAM agar, anaerobe
[16] = tested on: Bacillus subtilis PCI 219; test: MIC, serial two-fold agar dilution; format: cell-based; conditions: PCI219, nutrient agar
[17] = tested on: Trichophyton mentagrophytes D155; test: MIC, serial two-fold agar dilution; format: cell-based; conditions: Sabouraud agar
[18] = tested on: Micrococcus flavus D12; test: MIC, serial two-fold agar dilution; format: cell-based; conditions: nutrient agar
[19] = tested on: melanotic melanoma B16; conditions: qd 1→9
[20] = tested on: Bacteroides fragilis; test: MIC, serial two-fold agar dilution; format: cell-based; conditions: GAM agar, anaerobe
[21] = tested on: lymphoid leukemia L1210; conditions: qd 1→9
[22] = tested on: gram-negative bacteria and fungi; test: antibacterial/antifungal activity (MIC), summary; format: cell-based

CO[C@H]1[C@@H](O)[C@@H](C)O[C@H](O[C@H]2[C@H](Oc3cccc4c(O)c5c(=O)oc6ccc(C)c7c(=O)oc(c34)c5c67)O[C@H](C)[C@H](O)[C@@H]2O)[C@@H]1O [Chartreusin, reference compound]
MIC [1]: > 100 µg/mL | MIC [2]: 6.3 µg/mL (≈ 9.83 µM) | MIC [3]: 1.6 µg/mL (≈ 2.5 µM) | Average wt. change on day 5 ([4]; 0.1 mg/kg/day ip): +2.8 g | Survivors on day 5 ([4]; 0.1 mg/kg/day ip): 6/6 | Survivors on day 45 ([4]; 0.1 mg/kg/day ip): 0/6 | T/C ([4]; 0.1 mg/kg/day ip): 100% | Average wt. change on day 5 ([4]; 0.3 mg/kg/day ip): +2.0 g | Survivors on day 5 ([4]; 0.3 mg/kg/day ip): 6/6 | Survivors on day 45 ([4]; 0.3 mg/kg/day ip): 0/6 | T/C ([4]; 0.3 mg/kg/day ip): 117% | Average wt. change on day 5 ([4]; 1 mg/kg/day ip): +1.3 g | MST ([4]; 1 mg/kg/day ip): 14.0 days | Survivors on day 5 ([4]; 1 mg/kg/day ip): 6/6 | Survivors on day 45 ([4]; 1 mg/kg/day ip): 0/6 | Average wt. change on day 5 ([4]; 3 mg/kg/day ip): +1.5 g | MST ([4]; 3 mg/kg/day ip): 15.0 days | Survivors on day 5 ([4]; 3 mg/kg/day ip): 6/6 | Survivors on day 45 ([4]; 3 mg/kg/day ip): 0/6 | Average wt. change on day 5 ([4]; 10 mg/kg/day ip): +1.3 g | Survivors on day 5 ([4]; 10 mg/kg/day ip): 6/6 | Survivors on day 45 ([4]; 10 mg/kg/day ip): 0/6 | Average wt. change on day 5 ([5]; 0.1 mg/kg/day ip): +3.1 g | Survivors on day 5 ([5]; 0.1 mg/kg/day ip): 6/6 | Survivors on day 45 ([5]; 0.1 mg/kg/day ip): 0/6 | T/C ([5]; 0.1 mg/kg/day ip): 100% | Average wt. change on day 5 ([5]; 0.3 mg/kg/day ip): +3.2 g | Survivors on day 5 ([5]; 0.3 mg/kg/day ip): 6/6 | Survivors on day 45 ([5]; 0.3 mg/kg/day ip): 0/6 | T/C ([5]; 0.3 mg/kg/day ip): 100% | Average wt. change on day 5 ([5]; 1 mg/kg/day ip): +1.9 g | Survivors on day 5 ([5]; 1 mg/kg/day ip): 6/6 | Survivors on day 45 ([5]; 1 mg/kg/day ip): 0/6 | T/C ([5]; 1 mg/kg/day ip): 113% | Average wt. change on day 5 ([5]; 3 mg/kg/day ip): +1.4 g | Survivors on day 5 ([5]; 3 mg/kg/day ip): 6/6 | Survivors on day 45 ([5]; 3 mg/kg/day ip): 0/6 | T/C ([5]; 3 mg/kg/day ip): 113% | Average wt. change on day 5 ([5]; 10 mg/kg/day ip): +1.3 g | Survivors on day 5 ([5]; 10 mg/kg/day ip): 6/6 | Survivors on day 45 ([5]; 10 mg/kg/day ip): 0/6 | MIC [6]: 0.8 µg/mL (≈ 1.25 µM) | MIC [7]: > 100 µg/mL | MIC [8]: 3.1 µg/mL (≈ 4.84 µM) | MIC [9]: > 100 µg/mL | MST ([10]; 0.1 mg/kg/day ip): 9.0 days | MST ([10]; 0.3 mg/kg/day ip): 10.5 days | MST ([10]; 10 mg/kg/day ip): 19.5 days | MIC [11]: > 100 µg/mL | MIC [12]: > 100 µg/mL | MIC [13]: > 100 µg/mL | Average wt. change on day 5 ([14]; 0.3 mg/kg/day ip): +1.8 g | Survivors on day 5 ([14]; 0.3 mg/kg/day ip): 6/6 | Survivors on day 45 ([14]; 0.3 mg/kg/day ip): 0/6 | T/C ([14]; 0.3 mg/kg/day ip): 100% | Average wt. change on day 5 ([14]; 1 mg/kg/day ip): +2.3 g | Survivors on day 5 ([14]; 1 mg/kg/day ip): 6/6 | T/C ([14]; 1 mg/kg/day ip): 114% | Average wt. change on day 5 ([14]; 3 mg/kg/day ip): +2.3 g | Survivors on day 5 ([14]; 3 mg/kg/day ip): 6/6 | Survivors on day 45 ([14]; 3 mg/kg/day ip): 0/6 | Average wt. change on day 5 ([14]; 10 mg/kg/day ip): +1.7 g | Survivors on day 5 ([14]; 10 mg/kg/day ip): 6/6 | Survivors on day 45 ([14]; 10 mg/kg/day ip): 0/6 | MIC [15]: 3.1 µg/mL (≈ 4.84 µM) | MIC [16]: 0.4 µg/mL (≈ 0.624 µM) | MIC [17]: > 100 µg/mL | MIC [18]: 0.4 µg/mL (≈ 0.624 µM) | MST ([19]; 0.3 mg/kg/day ip): 14.0 days | MST ([19]; 1 mg/kg/day ip): 16.0 days | MST ([19]; 3 mg/kg/day ip): 20.5 days | MST ([19]; 10 mg/kg/day ip): 25.0 days | MIC [20]: 6.3 µg/mL (≈ 9.83 µM) | MST ([21]; 0.1 mg/kg/day ip): 8.0 days | MST ([21]; 0.3 mg/kg/day ip): 8.0 days | MST ([21]; 1 mg/kg/day ip): 9.0 days | MST ([21]; 3 mg/kg/day ip): 9.0 days | MST ([21]; 10 mg/kg/day ip): 11.5 days | activity against gram-negative bacteria and fungi [22]: inactive
